This note sets out measurements from ChEMBL document CHEMBL1132601, “Design, synthesis, and structure-activity relationships of acetylene-based histamine H3 receptor antagonists” (J Med Chem, 1999).

The Ki is a measure of affinity in units of concentration, obtained from inhibition or displacement. Higher therefore signals lower affinity.

In this assay the target is Histamine H3 receptor (Rattus norvegicus, UniProt Q9QYN8). Description: Binding affinity at histamine H3 receptor in rat cortical membranes by [3H]Nalpha-methylhistamine displacement. Type of assay: cell membranes.
Histamine H3 receptor, sequence (Q9QYN8 whole entry): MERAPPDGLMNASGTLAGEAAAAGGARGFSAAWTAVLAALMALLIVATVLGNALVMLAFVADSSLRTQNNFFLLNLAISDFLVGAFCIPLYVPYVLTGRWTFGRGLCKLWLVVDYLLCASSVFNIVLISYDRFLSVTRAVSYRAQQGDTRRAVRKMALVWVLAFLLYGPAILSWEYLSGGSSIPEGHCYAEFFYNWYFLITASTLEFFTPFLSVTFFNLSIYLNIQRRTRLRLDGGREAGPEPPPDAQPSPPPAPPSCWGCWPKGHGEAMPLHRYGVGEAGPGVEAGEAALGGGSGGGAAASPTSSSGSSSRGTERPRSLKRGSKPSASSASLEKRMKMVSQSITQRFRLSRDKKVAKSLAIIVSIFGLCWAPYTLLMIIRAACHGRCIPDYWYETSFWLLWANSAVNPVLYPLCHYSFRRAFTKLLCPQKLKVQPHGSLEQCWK

`CCCC#CC1CC1c1c[nH]cn1` (stereo not drawn): the affinity, expressed as Ki, was 5.1 nM.

As to `C(#CCCC1CCCC1)CCc1c[nH]cn1`, the Ki is 0.9 nM.

For `CC(C)(C)CCC#C[C@@H]1C[C@H]1c1c[nH]cn1` [CIPRALISANT], the Ki worked out at 0.12 nM.
